Measurements as given in publication PMC11513854, “De novo GTP synthesis is a metabolic vulnerability for the interception of brain metastases” (Cell Reports Medicine, 2024).

How the values were obtained:
MDR1-MDCKII cells = experiment: Bi-directional permeability via MDR1-MDCKII cells; format: in vitro ADME
Experimental: (§1) MDR1-MDCKII permeability assays were performed by Wuxi AppTec Co. Briefly, MDR1-MDCK1 cells were seeded onto polycarbonate membranes in 96-well insert system plates and allowed to develop into monolayers. […] The plate was incubated for 2.5 h (37°C, 5% CO2) and the media was sampled on either side and the compound present was quantified by LC-MS/MS and the concentrations were used to calculate the efflux ratio. Digoxin (10 μM), nadolol (2 μM), and metoprolol (2 μM) were used as controls.

MDR1 = experiment: Bi-directional permeability via MDR1-MDCKII cells; format: in vitro ADME; settings: dog, MDCK-MDR1, pH 7.4; 2 μM (digoxin 10 μM), 2.5 h
Experimental: as §1

neural stem cells = experiment: Dose-response assay, PrestoBlue, normal brain cell control; format: cell-based; settings: Homo sapiens, 72-h treatment, N/A, not applicable
Source text: BM cell lines from primary lung (BT478, BT530), breast (BT923, BT930) and melanoma (BT673, BT917) cancers are derived from primary patient samples with written consent from the patients and approved by the Hamilton Health Sciences McMaster Health Sciences Research Ethics Board (REB #07366), in compliance with Canada’s Tri-Council Policy Statement on the Ethical Conduct for Research Involving Humans and International Ethical guidelines for Biomedical Research Involving Human Subjects. MDA-MB-231 was purchasedfrom American Type Culture Collection and used to generate a brain metastasis derivate following injection into the mammary fat pad and isolation from the brain at human endpoint. Cell lines are maintained in NeuroCult Complete (NCC) media consisting of NeuroCult NS-A Basal Medium (Stemcell technology #05750) and supplemented with 50 mL of NeuroCult Supplement, 20 ng/mL epidermal growth factor (EGF), 10 ng/mL fibroblast growth factor (FGF), 2 μg/mL heparin and 1% penicillin-streptomycin. Human fetal neural stem cells (hNSCs) are derived in-house using a previously described protocol.[62] Normal human astrocytes are purchased from American Type Culture Collection. All cell lines were maintained at 37°C with a humidified atmosphere of 5% CO2.
(§2) The half maximal inhibitory concentration (IC50) is determined by plotting percent cell viability by the logarithmic concentration of drug. IC80 concentrations will be used for subsequent functional assays (cell proliferation, sphere formation), as determined by the following formula: ICF=100−F/F^1/H×IC50 where F = fraction of maximal response and H = hill slope.

[1] = system: patient-derived lung-BMIC line (BT478); experiment: Preliminary drug screen of CMap compounds, PrestoBlue viability; format: cell-based, human; settings: 10 μM, 72 h, PrestoBlue readout
Source text: In this work, we aimed to identify potential druggable targets for BM, by characterizing the transcriptomes of pre-metastatic lung-, breast-, and melanoma-BMICs (see Figure 1A).[13]^,[14] We identified 3,951 genes that are commonly differentially expressed in the pre-metastatic cohort of cells compared to BMICs isolated from established patient tumors (Figure 1C).[14] We input the shared gene signature of pre-metastatic BMICs (defined by the commonly shared gene signature from BMICs of all three primary tumor cohorts) as a query signature for computational CMap[17] analysis to identify compounds that evoke opposing transcriptional changes (see Figure 1A). […]
For preliminary drug screening, drugs were plated at a concentration of 10 μM in a 96-well plate, in triplicate at a density of 1000 cells/well, and incubated at 37°C with a humidified atmosphere of 5% CO2 for three days. […] Following treatment, PrestoBlue (20 μL, Invitrogen), a resazurin-based cell viability reagent and fluorescence indicator of cell metabolism, was added to each well to estimate proliferation approximately 2 h prior to measuring fluorescence intensity via FLUOstar Omega Fluorescence 556 Microplate reader (BMG LABTECH) at an excitation and emission wavelength of 540 nm and 590 nm, respectively. Results were analyzed using Omega analysis software.

lung-BMIC line (BT478) = experiment: Dose-response assay, PrestoBlue; format: cell-based, human; settings: Homo sapiens; BT478, 72-h treatment, PrestoBlue; N/A, not applicable; read-out: Lung-BM IC50
Experimental: For preliminary drug screening, drugs were plated at a concentration of 10 μM in a 96-well plate, in triplicate at a density of 1000 cells/well, and incubated at 37°C with a humidified atmosphere of 5% CO2 for three days. Vehicle controls for cell death are used in each functional experiment. Following treatment, PrestoBlue (20 μL, Invitrogen), a resazurin-based cell viability reagent and fluorescence indicator of cell metabolism, was added to each well to estimate proliferation approximately 2 h prior to measuring fluorescence intensity via FLUOstar Omega Fluorescence 556 Microplate reader (BMG LABTECH) at an excitation and emission wavelength of 540 nm and 590 nm, respectively. Results were analyzed using Omega analysis software.
as §2, with “Dose-response assays were conducted using the same protocol apart from drugs being plated using 2-fold serial dilutions (20 μM - 39 nM) as previously described.[66] The” for “The”

[2] = Brain homogenate binding, equilibrium dialysis; format: in vitro ADME, mouse; settings: CD-1, mouse, pooled brain homogenate, pH 7.4, 37°C
Experimental: The samples were applied to a dialysis well plate and sealed with dialysis membrane. Dialysis buffer (100 mM sodium phosphate pH 7.4, 150 mM NaCl) was applied to opposite side of the membrane (receiver well of the plate), and samples were incubated at 37°C with 5% CO2 for 4 h. Following completion of incubation period, samples were recovered from each side of the dialysis membrane and processed by protein precipitation, and analysis by LC-MS/MS for compound concentration. A corresponding set of samples was also prepared and stop solution (acetonitrile containing 200 ng/mL tolbutamide and 200 ng/mL labetalol) was immediately added, and samples were obtained from each side of the dialysis plate for mass spectrometric analysis.

| Structure (SMILES) | Rank of Papp (MDR1-MDCKII cells) | Papp A→B at 2.5 h, 2 μM (MDR1) [×10⁻⁶ cm/s] | IC50 (neural stem cells) [µM] | IC50 (lung-BMIC line (BT478)) [µM] | further results |
| --- | --- | --- | --- | --- | --- |
| CC(C)(C)NCC(O)COc1cccc2c1CC(O)C(O)C2 (stereo not drawn) [Nadolol] | Low | 0.198 | – | – | – |
| COc1c(C)c2c(c(O)c1C/C=C(\C)CCC(=O)N1CCN(C)CC1)C(=O)OC2 [Compound 4] | – | – | 493 | – | – |
| C[C@H]1O[C@@H](O[C@H]2[C@@H](O)C[C@H](O[C@H]3[C@@H](O)C[C@H](O[C@H]4CC[C@@]5(C)[C@H](CC[C@@H]6[C@@H]5C[C@@H](O)[C@]5(C)[C@@H](C7=CC(=O)OC7)CC[C@]65O)C4)O[C@@H]3C)O[C@@H]2C)C[C@H](O)[C@@H]1O [Digoxin] | Low | 0.556 | – | – | Papp B→A at 2.5 h, 2 μM (MDR1): 11.8 ×10⁻⁶ cm/s; efflux ratio at 2.5 h, 2 μM (MDR1): 21.2 |
| CN1CCc2cccc3c2[C@H]1Cc1ccc(O)c(O)c1-3 [apomorphine] | – | – | – | – | viability of lung-BMICs (BT478) compared to vehicle control [1]: significantly inhibited BMIC viability |
| COc1c(C)c2c(c(O)c1C/C=C(\C)CCC(=O)OCCN1CCOCC1)C(=O)OC2 [MMF (1), Mycophenolate mofetil] | – | – | 31.2 | 48 | – |
| COCCc1ccc(OCC(O)CNC(C)C)cc1 (stereo not drawn) [Metoprolol] | High | 29.5 | – | – | – |
| COc1c(C)c2c(c(O)c1C/C=C(\C)CCC(=O)NCCCN1CCC1)C(=O)OC2 [Compound 5] | – | – | 182 | – | – |
| COc1c(C)c2c(c(O)c1C/C=C(\C)CCC(=O)NCCN1CCCC1)C(=O)OC2 [Compound 6] | – | – | 70.8 | 24.7 | – |
| COc1c(C)c2c(c(O)c1C/C=C(\C)CCC(=O)OCCN1CCN(C(=O)OC(C)(C)C)CC1)C(=O)OC2 [Compound 2] | – | – | 353 | 17.1 | – |
| CC(C)NCC(O)COc1cccc2ccccc12 (stereo not drawn) [Propranolol] | – | – | – | – | fraction unbound at 4 h, 2 μM [2]: 0.023 |
